PMC4351868 (Cancer chemotherapy and pharmacology, 2012)
Like-named read-outs stand apart in the source and are kept apart here.

Legend:
[1] = human, in vivo
[2] = format: in vivo, human; details: for Serum concentration / Tumor concentration / concentration at 12 h: approximately 12 hours after 8th AEE788 (250 mg) dose; for concentration at 12 h: serum, Serum concentration
[3] = Serum pharmacokinetics of AEE788 and its metabolite AQM674
[4] = temsirolimus combined with sorafenib; 9 of 19 patients; cited from earlier work
[5] = system: recurrent glioblastoma; details: glioblastoma patients; erlotinib in combination with temsirolimus; cited from earlier work
[6] = system: recurrent glioblastoma; assay: Efficacy: tumor response; format: in vivo, human; details: for Median PFS: dose expansion phase
[7] = Safety assessment: adverse events; format: in vivo
[8] = system: recurrent glioblastoma; assay: FLT-PET and DCE-/DSC-/DWI-MRI pharmacodynamic imaging; format: in vivo, human

C[C@@H](Nc1ncnc2[nH]c(-c3ccc(CN4CCNCC4)cc3)cc12)c1ccccc1 [AQM674]
exposure on day 15 relative to day 1 [1]: ~3 fold | time of maximum serum concentration after administration, on average [1]: 4.6 h | Serum concentration ([2]; Patient 1): 20.6 ng/mL | Tumor concentration ([2]; Patient 1): 196.7 ng/mL | Serum concentration ([2]; Patient 2): 22.8 ng/mL | Tumor concentration ([2]; Patient 2): 411.2 ng/mL | Serum concentration ([2]; Patient 3): 31.3 ng/mL | Tumor concentration ([2]; Patient 3): 299.5 ng/mL | Serum concentration ([2]; Patient 4): 22.8 ng/mL | Tumor concentration ([2]; Patient 4): 93.9 ng/mL | fold range in exposure over an 11-fold range in doses (50–550 mg) ([3]; Group A): 20 fold | effect of EIACD on overall exposure / concentrations ([3]; Group B (EIACD) vs Group A): reduced | accumulation after daily (q 24 h) administration versus a single dose ([3]; human, in vivo): 2-8 times | PK steady state reached ([3]; once-daily dosing): ≤ 15 days

CO[C@H]1C[C@@H]2CC[C@@H](C)[C@@](O)(O2)C(=O)C(=O)N2CCCC[C@H]2C(=O)O[C@H]([C@H](C)C[C@@H]2CC[C@@H](OC(=O)C(C)(CO)CO)[C@H](OC)C2)CC(=O)[C@H](C)/C=C(\C)[C@@H](O)[C@@H](OC)C(=O)[C@H](C)C[C@H](C)/C=C/C=C/C=C/1C [temsirolimus]
grade 3 thrombocytopenia, patients [4]: 47%

C#Cc1cccc(Nc2ncnc3cc(OCCOC)c(OCCOC)cc23)c1 [erlotinib]
6-month PFS [5]: 12.5% | PR [5]: none

CCN1CCN(Cc2ccc(-c3cc4c(N[C@H](C)c5ccccc5)ncnc4[nH]3)cc2)CC1 [AEE788]
overall best response: SD for > 3 cycles, patients ([6]; 6 of 36 patients): 17% | Treatment discontinuation due to progressive disease ([6]; Group A, of 26 patients): 18 (69.2) n (%) | Treatment discontinuation due to progressive disease ([6]; Group B, of 14 patients): 11 (78.6) n (%) | complete or partial response ([6]; all patients): No CR or PR | Median PFS ([6]; Group A): 2.7 (90% CI: 1.9, 2.8) months | Median PFS ([6]; Group B): 1.6 (90% CI: 0.2, 2.6) months | disease progression causing treatment discontinuation, patients ([6]; dose-escalation EIACD group, all dose levels (11 patients)): 78.6% | disease progression causing treatment discontinuation, patients ([6]; dose-escalation non-EIACD group, all dose levels (18 patients)): 69.2% | disease progression causing treatment discontinuation, patients ([6]; dose-expansion Arm 1, all dose levels (5 patients)): 71.4% | disease progression causing treatment discontinuation, patients ([6]; dose-expansion Arm 2, all dose levels (10 patients)): 58.8% | deaths within 28 days of last dose of AEE788 ([7]; Group A): 4 deaths | Treatment discontinuation due to death ([7]; Group A, of 26 patients): 2 (7.7) n (%) | Treatment discontinuation due to death ([7]; Group B, of 14 patients): 0 (0) n (%) | deaths during AEE788 therapy ([7]; all disease progression): Three | hepatotoxicity (at least grade 2 AST or ALT elevations), patients ([7]; human, in vivo): 27% | patients who discontinued because of SAEs ([7]; human, in vivo): 17% | patients who discontinued treatment because of AEs ([7]; human, in vivo): 28% | patients with grade 3/4 AST or ALT elevations ([7]; human, in vivo): 22% | patients reporting at least one AE ([7]; in vivo): All patients | relationship between higher AEE788 dose levels and AST or ALT abnormalities ([7]; in vivo): No relationship | change in FLT-PET parameters ([8]; FLT-PET in 6 patients (250, 400, 600 mg)): one patient experienced a significant decrease in PET parameters | pharmacodynamic effects based on FLT-PET and/or MRI analyses ([8]; any dose level): no significant pharmacodynamic effects | PK steady state reached [1]: ≤ 15 days | accumulation after daily (q 24 h) administration versus a single dose [1]: 2-8 times | effect of EIACD on overall exposure / concentrations [1]: reduced | exposure of Group B patients at 600 mg relative to Group A patients at 550 mg [1]: half | fold range in exposure over an 11-fold range in doses (50–550 mg) [1]: 52 fold | mean coefficient of variation in AUC0–24 [1]: 67% | range of coefficient of variation in AUC0–24 [1]: 47-102% | exposure on day 15 relative to day 1 ([1]; 15 day): approximately 4.5 fold | Kp ([2]; human, glioblastoma tumor / plasma, oral, 250 mg): 14 to 59 | concentration at 12 h ([2]; human, oral, 250 mg, Patient 1): 57.3 ng/mL | concentration at 12 h ([2]; human, oral, 250 mg, Patient 2): 41.9 ng/mL | concentration at 12 h ([2]; human, oral, 250 mg, Patient 3): 141 ng/mL | concentration at 12 h ([2]; human, oral, 250 mg, Patient 4): 110 ng/mL | Tmax ([3]; human, serum, oral): 5 h | half-life ([3]; human, serum, oral): > 24 h | AUC(0-t) ([3]; human, serum, oral, 50 mg/day): 82 ng·h/mL | Cmax ([3]; human, serum, oral, 50 mg/day): 7.7 ng/mL | Tmax ([3]; human, serum, oral, 50 mg/day): 3 h | AUC(0-t) ([3]; human, serum, oral, 100 mg/day): 168 ng·h/mL | Cmax ([3]; human, serum, oral, 100 mg/day): 12.7 ng/mL | Tmax ([3]; human, serum, oral, 100 mg/day): 4.3 h | AUC(0-t) ([3]; human, serum, oral, 200 mg/day): 189 ng·h/mL | Cmax ([3]; human, serum, oral, 200 mg/day): 8.2 ng/mL | Tmax ([3]; human, serum, oral, 200 mg/day): 9 h | AUC(0-t) ([3]; human, serum, oral, 250 mg/day): 1440 ng·h/mL | Cmax ([3]; human, serum, oral, 250 mg/day): 74.5 ng/mL | Tmax ([3]; human, serum, oral, 250 mg/day): 5.9 h | AUC(0-t) ([3]; human, serum, oral, 300 mg/day): 628 ng·h/mL | Cmax ([3]; human, serum, oral, 300 mg/day): 55.2 ng/mL | Tmax ([3]; human, serum, oral, 300 mg/day): 4.9 h | AUC(0-t) ([3]; human, serum, oral, 400 mg/day): 1150 ng·h/mL | Cmax ([3]; human, serum, oral, 400 mg/day): 77.1 ng/mL | Tmax ([3]; human, serum, oral, 400 mg/day): 6.7 h | AUC(0-t) ([3]; human, serum, oral, 450 mg/day): 3000 ng·h/mL | Cmax ([3]; human, serum, oral, 450 mg/day): 148 ng/mL | Tmax ([3]; human, serum, oral, 450 mg/day): 11 h | AUC(0-t) ([3]; human, serum, oral, 550 mg/day): 4300 ng·h/mL | Cmax ([3]; human, serum, oral, 550 mg/day): 234 ng/mL | Tmax ([3]; human, serum, oral, 550 mg/day): 12.5 h | AUC(0-t) ([3]; human, serum, oral, 600 mg/day): 730 ng·h/mL | Cmax ([3]; human, serum, oral, 600 mg/day): 71.8 ng/mL | Tmax ([3]; human, serum, oral, 600 mg/day): 3.7 h | AUC(0-t) ([3]; human, serum, oral, 800 mg/day): 1460 ng·h/mL | Cmax ([3]; human, serum, oral, 800 mg/day): 95.2 ng/mL | Tmax ([3]; human, serum, oral, 800 mg/day): 3 h
